From patent US20260070945A1, “MACROCYCLIC IMMUNOMODULATORS” (Bristol-Myers Squibb Company, priority 2022, published 2026)
Where a SMILES comes first, the peptide text is derived from it. Bridges are numbered along the chain shown (N, C = ends). [ ]: non-standard residue; d: D form. The star is where a group is joined. Phe(4-COOH) = N[C@@H](Cc1ccc(C(=O)O)cc1)C(=O)O; Bip = N[C@@H](Cc1ccc(-c2ccccc2)cc1)C(=O)O; Phe(3-Me) = Cc1cccc(C[C@H](N)C(=O)O)c1; mTyr = N[C@@H](Cc1cccc(O)c1)C(=O)O; dAla(cPr) = N[C@H](CC1CC1)C(=O)O; Cha = N[C@@H](CC1CCCCC1)C(=O)O; dCba = N[C@H](CC1CCC1)C(=O)O; Carboxymethyl = O=C(O)C*; NMeA = CN[C@@H](C)C(=O)O; Orn = NCCC[C@H](N)C(=O)O; Aun = NCCCCCCCCCCC(=O)O; Dab = NCC[C@H](N)C(=O)O; Dap = NC[C@H](N)C(=O)O; AEEA = NCCOCCOCC(=O)O; Ac3c = NC1(C(=O)O)CC1

The compounds below were run against T1, PD-1/PD-L1 interaction (PE-labeled human PD-L1-Ig binding to Jurkat cell line over-expressing human PD-1) (Homo sapiens, UniProt Q15116) (assay: Jurkat-PD-1 Cell Binding High-Content Screening Assay (CBA)). Settings: Jurkat-hPD-1 cells, PE-labeled PD-L1-Ig 20 nM final; read-out: Jurkat HPD1 PDL1 IC50.
T1 construct: expressed in transfected cells; host or cells: Jurkat
T1 sequence (Q15116 25-288): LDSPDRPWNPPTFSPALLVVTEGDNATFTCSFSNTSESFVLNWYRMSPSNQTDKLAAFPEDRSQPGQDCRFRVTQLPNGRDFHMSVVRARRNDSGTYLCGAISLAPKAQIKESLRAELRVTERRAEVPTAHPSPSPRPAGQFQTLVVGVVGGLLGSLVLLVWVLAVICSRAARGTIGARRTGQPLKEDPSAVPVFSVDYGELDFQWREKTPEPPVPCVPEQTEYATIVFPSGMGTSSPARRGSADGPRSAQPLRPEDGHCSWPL
In short: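 High-content imaging read-out of PE-PD-L1-Ig binding (20 nM final, 1 h) to Jurkat-hPD-1 cells, after 2 h compound exposure at 37 °C in DMEM with 10% FCS. Nuclei counterstained with Hoechst 33342 after paraformaldehyde fixation.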
`CC(C)C[C@@H]1NC(=O)[C@H](Cc2c[nH]c3ccccc23)NC(=O)[C@H](CC(=O)O)NC(=O)[C@H](Cc2ccc(C(=O)O)cc2)NC(=O)[C@H](Cc2ccc(OCC(=O)O)cc2)NC(=O)CSC[C@@H](C(=O)N[C@@H](CCCN)C(=O)NCCOCCOCC(=O)NCCCCCCCCCCC(=O)O)NC(=O)[C@H](CO)NC(=O)[C@H](C(C)C)NC(=O)[C@H](CC2CCCCC2)NC(=O)[C@H](CCN)NC(=O)[C@@H](CC2CC2)NC(=O)[C@H](C)N(C)C(=O)[C@H](C(C)C)NC(=O)[C@H](Cc2ccc(-c3ccccc3)cc2)NC1=O` [Example 1248] ({CH2CO}-Y(Carboxymethyl)[Phe(4-COOH)]DWL[Bip]V[NMeA][dAla(cPr)][Dab][Cha]VSC[Orn][AEEA][Aun]-OH; thioether N-14) gave an IC50 of 0.018 µM.
Work on `CC(C)C[C@@H]1NC(=O)[C@H](Cc2c[nH]c3ccccc23)NC(=O)[C@H](CC(=O)O)NC(=O)[C@H](Cc2ccc(C(=O)O)cc2)NC(=O)[C@H](Cc2ccc(OCC(=O)O)cc2)NC(=O)CSC[C@@H](C(=O)N[C@@H](CCCN)C(=O)NCCOCCOCC(=O)NCCCCCCCCCCC(=O)O)NC(=O)[C@H](CO)NC(=O)[C@H](C(C)C)NC(=O)[C@H](CC2CCCCC2)NC(=O)[C@H](CCN)NC(=O)[C@@H](CC2CCC2)NC(=O)[C@H](C)N(C)C(=O)[C@H](C(C)C)NC(=O)[C@H](Cc2ccc(-c3ccccc3)cc2)NC1=O` [Example 1249] ({CH2CO}-Y(Carboxymethyl)[Phe(4-COOH)]DWL[Bip]V[NMeA][dCba][Dab][Cha]VSC[Orn][AEEA][Aun]-OH; thioether N-14) yielded an IC50 of 0.0295 µM.
`Cc1cccc(C[C@@H]2NC(=O)[C@H](CC(=O)O)NC(=O)[C@H](Cc3ccc(OCC(=O)O)cc3)NC(=O)[C@H](Cc3ccc(OCC(=O)O)cc3)NC(=O)CSC[C@@H](C(=O)NC3(C(=O)NCCOCCOCC(=O)NCCCCCCCCCCC(=O)O)CC3)NC(=O)[C@H](CCCNC(=N)N)NC(=O)[C@H](C(C)C)NC(=O)[C@H](CC3CCCCC3)NC(=O)[C@H](CCN)NC(=O)[C@@H](CC(C)C)NC(=O)[C@H](C)N(C)C(=O)[C@H](C(C)C)NC(=O)[C@H](Cc3ccc(-c4ccccc4)cc3)NC(=O)[C@H](CC(C)C)NC2=O)c1` [Example 1250] ({CH2CO}-Y(Carboxymethyl)Y(Carboxymethyl)D[Phe(3-Me)]L[Bip]V[NMeA][dL][Dab][Cha]VRC[Ac3c][AEEA][Aun]-OH; thioether N-14) gave an IC50 of 0.0028 µM.
In the case of `Cc1cccc(C[C@@H]2NC(=O)[C@H](CC(=O)O)NC(=O)[C@H](Cc3ccc(OCC(=O)O)cc3)NC(=O)[C@H](Cc3ccc(OCC(=O)O)cc3)NC(=O)CSC[C@@H](C(=O)NC3(C(=O)NCCOCCOCC(=O)NCCCCCCCCCCC(=O)O)CC3)NC(=O)[C@H](CCCN)NC(=O)[C@H](C(C)C)NC(=O)[C@H](CC3CCCCC3)NC(=O)[C@H](CCN)NC(=O)[C@@H](CC(C)C)NC(=O)[C@H](C)N(C)C(=O)[C@H](Cc3ccc(O)cc3)NC(=O)[C@H](Cc3ccc(-c4ccccc4)cc3)NC(=O)[C@H](CC(C)C)NC2=O)c1` [Example 1251] ({CH2CO}-Y(Carboxymethyl)Y(Carboxymethyl)D[Phe(3-Me)]L[Bip]Y[NMeA][dL][Dab][Cha]V[Orn]C[Ac3c][AEEA][Aun]-OH; thioether N-14), the IC50 is reported as 0.0118 µM.
`Cc1cccc(C[C@@H]2NC(=O)[C@H](CC(=O)O)NC(=O)[C@H](Cc3ccc(OCC(=O)O)cc3)NC(=O)[C@H](CN)NC(=O)CSC[C@@H](C(=O)NC3(C(=O)NCCOCCOCC(=O)NCCCCCCCCCCC(=O)O)CC3)NC(=O)[C@H](CCCN)NC(=O)[C@H](C(C)C)NC(=O)[C@H](CC3CCCCC3)NC(=O)[C@H](CCN)NC(=O)[C@@H](CC(C)C)NC(=O)[C@H](C)N(C)C(=O)[C@H](Cc3ccc(O)cc3)NC(=O)[C@H](Cc3ccc(-c4ccccc4)cc3)NC(=O)[C@H](Cc3ccc(O)cc3)NC2=O)c1` [Example 1252] ({CH2CO}-[Dap]Y(Carboxymethyl)D[Phe(3-Me)]Y[Bip]Y[NMeA][dL][Dab][Cha]V[Orn]C[Ac3c][AEEA][Aun]-OH; thioether N-14) showed an IC50 of 0.0228 µM.
Compound `Cc1cccc(C[C@@H]2NC(=O)[C@H](CC(=O)O)NC(=O)[C@H](Cc3ccc(OCC(=O)O)cc3)NC(=O)[C@H](Cc3ccc(OCC(=O)O)cc3)NC(=O)CSC[C@@H](C(=O)NC3(C(=O)NCCOCCOCC(=O)NCCCCCCCCCCC(=O)O)CC3)NC(=O)[C@H](CCCNC(=N)N)NC(=O)[C@H](C(C)C)NC(=O)[C@H](CC3CCCCC3)NC(=O)[C@H](CCN)NC(=O)[C@@H](CC(C)C)NC(=O)[C@H](C)N(C)C(=O)[C@H](Cc3ccc(O)cc3)NC(=O)[C@H](Cc3ccc(-c4ccccc4)cc3)NC(=O)[C@H](Cc3ccc(O)cc3)NC2=O)c1` [Example 1253] ({CH2CO}-Y(Carboxymethyl)Y(Carboxymethyl)D[Phe(3-Me)]Y[Bip]Y[NMeA][dL][Dab][Cha]VRC[Ac3c][AEEA][Aun]-OH; thioether N-14) has an IC50 of 0.0166 µM.
In the case of `Cc1cccc(C[C@@H]2NC(=O)[C@H](CC(=O)O)NC(=O)[C@H](Cc3ccc(OCC(=O)O)cc3)NC(=O)[C@H](Cc3ccc(OCC(=O)O)cc3)NC(=O)CSC[C@@H](C(=O)N[C@@H](CCN)C(=O)NCCCCCCCCCCC(=O)O)NC(=O)[C@H](CCCN)NC(=O)[C@H](C(C)C)NC(=O)[C@H](CC3CCCCC3)NC(=O)[C@H](CCN)NC(=O)[C@@H](CC(C)C)NC(=O)[C@H](C)N(C)C(=O)[C@H](Cc3ccc(O)cc3)NC(=O)[C@H](Cc3ccc(-c4ccccc4)cc3)NC(=O)[C@H](C(C)C)NC2=O)c1` [Example 1254] ({CH2CO}-Y(Carboxymethyl)Y(Carboxymethyl)D[Phe(3-Me)]V[Bip]Y[NMeA][dL][Dab][Cha]V[Orn]C[Dab][Aun]-OH; thioether N-14), the IC50 is reported as 0.0125 µM.
For `Cc1cccc(C[C@@H]2NC(=O)[C@H](CC(=O)O)NC(=O)[C@H](Cc3ccc(OCC(=O)O)cc3)NC(=O)[C@H](CN)NC(=O)CSC[C@@H](C(=O)N[C@@H](CCN)C(=O)NCCCCCCCCCCC(=O)O)NC(=O)[C@H](CCCN)NC(=O)[C@H](C(C)C)NC(=O)[C@H](CC(C)C)NC(=O)[C@H](CCN)NC(=O)[C@@H](CC(C)C)NC(=O)[C@H](C)N(C)C(=O)[C@H](Cc3ccc(O)cc3)NC(=O)[C@H](Cc3ccc(-c4ccccc4)cc3)NC(=O)[C@H](Cc3ccc(O)cc3)NC2=O)c1` [Example 1255] ({CH2CO}-[Dap]Y(Carboxymethyl)D[Phe(3-Me)]Y[Bip]Y[NMeA][dL][Dab]LV[Orn]C[Dab][Aun]-OH; thioether N-14), the IC50 was 0.206 µM.
In the case of `CC(C)[C@@H]1NC(=O)[C@H](CC2CCCCC2)NC(=O)[C@H](CCN)NC(=O)[C@@H](C)NC(=O)[C@H](C)N(C)C(=O)[C@H](Cc2ccc(O)cc2)NC(=O)[C@H](Cc2ccc(-c3ccccc3)cc2)NC(=O)[C@H](Cc2ccc(O)cc2)NC(=O)[C@H](Cc2cccc(O)c2)NC(=O)[C@H](CC(=O)O)NC(=O)[C@H](Cc2ccc(OCC(=O)O)cc2)NC(=O)[C@H](CN)NC(=O)CSC[C@@H](C(=O)N[C@@H](CCN)C(=O)NCCCCCCCCCCC(=O)O)NC(=O)[C@H](CCCN)NC1=O` [Example 1256] ({CH2CO}-[Dap]Y(Carboxymethyl)D[mTyr]Y[Bip]Y[NMeA][dA][Dab][Cha]V[Orn]C[Dab][Aun]-OH; thioether N-14), the IC50 is reported as 0.502 µM.
Work on `CC(C)C[C@H]1NC(=O)[C@H](C)N(C)C(=O)[C@H](Cc2ccc(O)cc2)NC(=O)[C@H](Cc2ccc(-c3ccccc3)cc2)NC(=O)[C@H](Cc2ccc(O)cc2)NC(=O)[C@H](Cc2cccc(O)c2)NC(=O)[C@H](CC(=O)O)NC(=O)[C@H](Cc2ccc(OCC(=O)O)cc2)NC(=O)[C@H](CN)NC(=O)CSC[C@@H](C(=O)N[C@@H](CCN)C(=O)NCCCCCCCCCCC(=O)O)NC(=O)[C@H](CCCN)NC(=O)[C@H](C(C)C)NC(=O)[C@H](CC2CCCCC2)NC(=O)[C@H](CCN)NC1=O` [Example 1257] ({CH2CO}-[Dap]Y(Carboxymethyl)D[mTyr]Y[Bip]Y[NMeA][dL][Dab][Cha]V[Orn]C[Dab][Aun]-OH; thioether N-14) yielded an IC50 of 0.226 µM.
With `Cc1cccc(C[C@@H]2NC(=O)[C@H](CC(=O)O)NC(=O)[C@H](Cc3ccc(OCC(=O)O)cc3)NC(=O)[C@H](CN)NC(=O)CSC[C@@H](C(=O)N[C@@H](CCN)C(=O)NCCCCCCCCCCC(=O)O)NC(=O)[C@H]([C@@H](C)O)NC(=O)[C@H](C(C)C)NC(=O)[C@H](CC3CCCCC3)NC(=O)[C@H](CCN)NC(=O)[C@@H](CC(C)C)NC(=O)[C@H](C)N(C)C(=O)[C@H](Cc3ccc(O)cc3)NC(=O)[C@H](Cc3ccc(-c4ccccc4)cc3)NC(=O)[C@H](Cc3ccc(OCC(=O)O)cc3)NC2=O)c1` [Example 1258] ({CH2CO}-[Dap]Y(Carboxymethyl)D[Phe(3-Me)]Y(Carboxymethyl)[Bip]Y[NMeA][dL][Dab][Cha]VTC[Dab][Aun]-OH; thioether N-14) the IC50 was 0.019 µM.
For `Cc1cccc(C[C@@H]2NC(=O)[C@H](CC(=O)O)NC(=O)[C@H](Cc3ccc(OCC(=O)O)cc3)NC(=O)[C@H](CN)NC(=O)CSC[C@@H](C(=O)N[C@@H](CCN)C(=O)NCCCCCCCCCCC(=O)O)NC(=O)[C@H](CO)NC(=O)[C@H](C(C)C)NC(=O)[C@H](CC3CCCCC3)NC(=O)[C@H](CCN)NC(=O)[C@@H](CC(C)C)NC(=O)[C@H](C)N(C)C(=O)[C@H](Cc3ccc(O)cc3)NC(=O)[C@H](Cc3ccc(-c4ccccc4)cc3)NC(=O)[C@H](Cc3ccc(OCC(=O)O)cc3)NC2=O)c1` [Example 1259] ({CH2CO}-[Dap]Y(Carboxymethyl)D[Phe(3-Me)]Y(Carboxymethyl)[Bip]Y[NMeA][dL][Dab][Cha]VSC[Dab][Aun]-OH; thioether N-14), the IC50 was 0.0149 µM.
`Cc1cccc(C[C@@H]2NC(=O)[C@H](CC(=O)O)NC(=O)[C@H](Cc3ccc(OCC(=O)O)cc3)NC(=O)[C@H](CN)NC(=O)CSC[C@@H](C(=O)N[C@@H](CCN)C(=O)NCCCCCCCCCCC(=O)O)NC(=O)[C@H]([C@@H](C)O)NC(=O)[C@H](C(C)C)NC(=O)[C@H](CC3CCCCC3)NC(=O)[C@H](CCN)NC(=O)[C@@H](CC(C)C)NC(=O)[C@H](C)N(C)C(=O)[C@H](Cc3ccc(OCC(=O)O)cc3)NC(=O)[C@H](Cc3ccc(-c4ccccc4)cc3)NC(=O)[C@H](C(C)C)NC2=O)c1` [Example 1260] ({CH2CO}-[Dap]Y(Carboxymethyl)D[Phe(3-Me)]V[Bip]Y(Carboxymethyl)[NMeA][dL][Dab][Cha]VTC[Dab][Aun]-OH; thioether N-14) showed an IC50 of 0.0104 µM.
